According to patent US11642369B2, “Method for enhancing expression of antioxidant in epidermis” (J-Network, Inc., priority 2020, dated 2023):

Key:
Diameter of vesicles = format: physicochemical; details: vesicles self-formed in a 2% aqueous solution
Protocol: Sample 62 was added to a medium in the form of refined vesicles. The refined vesicles were prepared in the following manner. […] Among the vesicles obtained by this preparation method, 97.3% had diameters in a range of 20 to 40 nm. In general, for example, the average diameters of vesicles self-formed in a 2% aqueous solution of GDM12 and a 2% aqueous solution of GDS23 are both about 140 nm.

HMOX1 = test: Expression of antioxidant enzyme HMOX1, quantitative real-time PCR; format: cell-based, human; details: NHEM, GDS23 500, 1000, 2000 μM, 6 hours; mRNA corrected with GAPDH, control 100%; FIG. 5
Protocol: (§1) After samples were prepared using normal human epidermal melanocytes, RNA was extracted, and expression and amplification of genes of each of target substances (Nrf-2, PPARG, NQO-1, CAT, and HMOX1) were checked by real-time PCR. PPARG is the genetic code of the protein PPARγ and is one of oxidative stress response genes.
(§2) Sample 1 is a control (no GDS23 added). Samples 2 to 4 are different from one another in the amount of GDS23. • Sample 1: Control (N.C.) • Sample 2: GDS23 (500 μM) • Sample 3: GDS23 (1000 μM) • Sample 4: GDS23 (2000 μM)
(§3) Thereafter, RNA was extracted from the cultured cells for each sample. Reverse transcription of the extracted RNA was performed to generate cDNA, and the quantity of mRNA of each target substance was determined by quantitative real-time PCR expression analysis. GAPDH (glyceraldehyde-3-phosphate dehydrogenase) was used as an internal standard. In the analysis, the mRNA expression level of each target substance was corrected with a value of the expression level of GAPDH as the internal standard in the same sample, and thereafter the correction value for each sample was calculated, assuming the correction value for the control as 100%.

CAT = test: Expression of antioxidant enzyme CAT, quantitative real-time PCR; format: cell-based, human; details: NHEM, GDS23 500, 1000 μM (Samples 1 to 3), 6 hours; mRNA corrected with GAPDH, control 100%; FIG. 4
Protocol: as §1, §2, §3

Nrf-2 = test: Expression of oxidative stress response gene Nrf-2, quantitative real-time PCR; format: cell-based, human; details: NHEM, GDS23 500, 1000, 2000 μM, 6 hours; mRNA corrected with GAPDH, control 100%; FIG. 1
Protocol: as §1, §2, §3

PPARG = test: Expression of oxidative stress response gene PPARG, quantitative real-time PCR; format: cell-based, human; details: NHEM, GDS23 500, 1000, 2000 μM, 6 hours; mRNA corrected with GAPDH, control 100%; FIG. 2
Protocol: as §1, §2, §3

NQO-1 = test: Expression of antioxidant enzyme NQO-1, quantitative real-time PCR; format: cell-based, human; details: NHEM, GDS23 500, 1000, 2000 μM, 6 hours; mRNA corrected with GAPDH, control 100%; FIG. 3
Protocol: as §1, §2, §3

glutathione = test: Expression of antioxidant protein: total glutathione per protein quantity, glutathione reductase recycling method; format: cell-based, human; details: NHEM, GDS23 500 to 4000 μM, 24 hours; control 100%; FIG. 6
Protocol: After samples were prepared using normal human epidermal melanocytes, the quantity of glutathione as an antioxidant protein in cells was checked.
Sample 5 is a control (no GDS23 added). Samples 6 to 9 are different from one another in the amount of GDS23. • Sample 5: Control (N.C.) • Sample 6: GDS23 (500 μM) • Sample 7: GDS23 (1000 μM) • Sample 8: GDS23 (2000 μM) • Sample 9: GDS23 (4000 μM)
Thereafter, for each sample, the protein quantity in epidermal melanocytes and the quantity of total glutathione (GSH+GSSG) were determined by a glutathione reductase recycling method, using an assay kit (TaKaRa BCA Protein Assay Kit: from Takara Bio Inc.). The total quantity of glutathione per protein quantity was obtained from the protein quantity and the total quantity of glutathione determined for each sample, and then an increased ratio for each sample was calculated when an increased ratio for the control was assumed as 100%.

Row | Substance | average diameters of vesicles (Diameter of vesicles) | expression level of HMOX1 (HMOX1) | expression level of CAT (CAT) | expression level of Nrf-2 (Nrf-2) | expression level of PPARG (PPARG) | expression level of NQO-1 (NQO-1) | total quantity of glutathione per protein quantity (glutathione)
1 | PEG-12 glycerol dimyristate [GDM12] | about 140 nm | – | – | – | – | – | –
2 | PEG-23 glycerol distearate [GDS23] | about 140 nm | Enhancement of HMOX1 | enhancement of CAT | enhances expression | enhances expression | enhancement of NQO-1 | promotes production of glutathione
